# Assay results from ChEMBL document CHEMBL1201862, “PubChem BioAssay data set” (2004).
# Active and inactive are the calls of the source.
# Legend:
# [1] = molecular target: Glucose-6-phosphate 1-dehydrogenase (Homo sapiens, UniProt P11413); test: inhibition of Homo sapiens G6PD, dose series – biochemical, fluorescence, selectivity assay for P. falciparum G6PD inhibitor project, dose response (AID 504792); format: functional
# [2] = molecular target: T1, Sentrin-specific protease 1 (Homo sapiens, UniProt Q9P0U3); test: Dose response confirmation of small molecule inhibitors of the catalytic domain of the SUMO protease, SENP1 in a FRET assay.; format: functional; settings: read-out: IC50_Mean
# T1 sequence (Q9P0U3 whole entry): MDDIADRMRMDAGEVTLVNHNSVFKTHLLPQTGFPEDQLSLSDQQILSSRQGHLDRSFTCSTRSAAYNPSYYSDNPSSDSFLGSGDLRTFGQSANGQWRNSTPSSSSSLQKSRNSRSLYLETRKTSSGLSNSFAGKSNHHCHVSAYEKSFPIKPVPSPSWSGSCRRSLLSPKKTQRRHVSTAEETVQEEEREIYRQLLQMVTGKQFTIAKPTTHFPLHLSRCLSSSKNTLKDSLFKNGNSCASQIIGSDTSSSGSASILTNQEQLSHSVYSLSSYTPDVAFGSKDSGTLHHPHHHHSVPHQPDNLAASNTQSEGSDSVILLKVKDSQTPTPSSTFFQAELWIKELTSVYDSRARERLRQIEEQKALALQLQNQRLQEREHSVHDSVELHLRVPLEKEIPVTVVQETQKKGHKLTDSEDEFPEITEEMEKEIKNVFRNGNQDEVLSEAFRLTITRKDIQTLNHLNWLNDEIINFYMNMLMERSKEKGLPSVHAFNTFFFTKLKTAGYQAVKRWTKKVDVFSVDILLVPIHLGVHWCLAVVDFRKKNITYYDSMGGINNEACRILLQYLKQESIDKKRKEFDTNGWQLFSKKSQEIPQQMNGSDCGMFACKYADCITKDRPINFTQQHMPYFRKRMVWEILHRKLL
# [3] = molecular target: T1, Sentrin-specific protease 1; test: SENP1 catalytic domain blockers, concentration series – biochemical, kinetic FRET, dose response (AID 651697); format: functional; settings: read-out: IC50_Mean
# [4] = molecular target: T2, Zinc finger protein mex-5 (Caenorhabditis elegans, UniProt Q9XUB2); test: potency of MEX-5 RNA-binding blockers – biochemical, C. elegans, fluorescence polarization, dose response (AID 1960)
# T2 sequence (Q9XUB2 whole entry): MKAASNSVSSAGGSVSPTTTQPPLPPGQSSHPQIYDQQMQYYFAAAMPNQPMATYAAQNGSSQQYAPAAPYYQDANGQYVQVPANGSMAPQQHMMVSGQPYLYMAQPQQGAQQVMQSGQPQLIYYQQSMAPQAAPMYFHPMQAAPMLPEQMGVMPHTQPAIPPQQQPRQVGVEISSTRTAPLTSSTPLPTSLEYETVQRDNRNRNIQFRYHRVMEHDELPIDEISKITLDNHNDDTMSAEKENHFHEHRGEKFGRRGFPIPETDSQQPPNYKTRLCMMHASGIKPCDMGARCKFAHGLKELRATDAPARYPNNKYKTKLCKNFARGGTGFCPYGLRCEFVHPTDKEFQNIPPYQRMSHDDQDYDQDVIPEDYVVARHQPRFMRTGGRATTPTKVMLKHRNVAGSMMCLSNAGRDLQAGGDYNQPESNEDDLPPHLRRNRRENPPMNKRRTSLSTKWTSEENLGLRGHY
# [5] = molecular target: T3, RNA-binding protein pos-1 (Caenorhabditis elegans, UniProt G5EF15); test: disruptors of C. elegans POS-1 RNA interaction – biochemical, fluorescence polarization, dose response (AID 1964);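 also: purified POS-1 fused to maltose binding protein made in E. coli; potency of compounds blocking POS-1 binding to fluorescent RNA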
# T3 sequence (G5EF15 whole entry): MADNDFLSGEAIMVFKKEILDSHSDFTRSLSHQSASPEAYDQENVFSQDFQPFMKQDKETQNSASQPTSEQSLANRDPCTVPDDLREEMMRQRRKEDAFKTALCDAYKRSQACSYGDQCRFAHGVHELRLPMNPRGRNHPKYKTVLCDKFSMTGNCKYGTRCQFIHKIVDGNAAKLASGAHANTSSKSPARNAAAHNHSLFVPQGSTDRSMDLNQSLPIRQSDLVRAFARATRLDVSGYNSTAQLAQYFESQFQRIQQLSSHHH
# [6] = molecular target: Dual specificity tyrosine-phosphorylation-regulated kinase 1A (Rattus norvegicus, UniProt Q63470); format: biochemical, Homo sapiens
# HEK293 = test: EBV LMP1 TES2 canonical NF-kB signalling blockers – cell-based, HEK293, luciferase, cherry-pick, dose response (AID 588343); format: functional; settings: Homo sapiens
# [7] = molecular target: T4, Heat shock factor protein 1 (Mus musculus, UniProt P38532); test: decrease of HSF1-responsive luciferase luminescence – cell-based, NIH3T3, dose retest, confirmation (AID 2382); format: functional;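 also: NIH3T3 fibroblasts with HSF1-driven luciferase reporter stressed by proteasome inhibitor MG132; luminescence from HSF1-driven luciferase expression after 8 hours of MG132 stress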
# T4 sequence (P38532 whole entry): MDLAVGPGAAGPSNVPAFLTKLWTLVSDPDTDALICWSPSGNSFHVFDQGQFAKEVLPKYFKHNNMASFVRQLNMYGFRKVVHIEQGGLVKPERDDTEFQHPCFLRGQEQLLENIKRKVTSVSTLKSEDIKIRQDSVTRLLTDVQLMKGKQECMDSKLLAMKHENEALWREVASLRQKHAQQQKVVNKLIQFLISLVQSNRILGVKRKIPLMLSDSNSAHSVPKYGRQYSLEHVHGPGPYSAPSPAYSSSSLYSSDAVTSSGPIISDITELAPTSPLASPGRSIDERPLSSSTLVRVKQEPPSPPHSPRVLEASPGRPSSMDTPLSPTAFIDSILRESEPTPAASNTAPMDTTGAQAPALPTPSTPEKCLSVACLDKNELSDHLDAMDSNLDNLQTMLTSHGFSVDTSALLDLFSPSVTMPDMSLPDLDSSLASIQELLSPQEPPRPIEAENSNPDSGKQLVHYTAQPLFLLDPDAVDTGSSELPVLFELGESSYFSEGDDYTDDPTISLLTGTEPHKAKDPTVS
# Streptococcus = test: GAS UMAA2166 growth inhibition – luminescence, BacTiterGlo, counter-screen for streptokinase expression inhibitor project, dose response (AID 1915); format: functional, organism-based;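 also: potency for reduction of bacterial viability or growth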
# Vero [8] = test: cells; format: functional; settings: Chlorocebus sabaeus
# [9] = system: Streptococcus sp. 'group A'; test: Streptococcus pyogenes SK(-)GAS viability under kanamycin – luminescence, BacTiterGlo, confirmation, counter-screen for streptokinase expression inhibitor project, dose response (AID 1900); format: functional, organism-based
# Vero [10] = test: cells; format: functional, cell-based; settings: Chlorocebus sabaeus
# Chain of Glucose-6-phosphate 1-dehydrogenase (P11413 whole entry, the tested form may be a part): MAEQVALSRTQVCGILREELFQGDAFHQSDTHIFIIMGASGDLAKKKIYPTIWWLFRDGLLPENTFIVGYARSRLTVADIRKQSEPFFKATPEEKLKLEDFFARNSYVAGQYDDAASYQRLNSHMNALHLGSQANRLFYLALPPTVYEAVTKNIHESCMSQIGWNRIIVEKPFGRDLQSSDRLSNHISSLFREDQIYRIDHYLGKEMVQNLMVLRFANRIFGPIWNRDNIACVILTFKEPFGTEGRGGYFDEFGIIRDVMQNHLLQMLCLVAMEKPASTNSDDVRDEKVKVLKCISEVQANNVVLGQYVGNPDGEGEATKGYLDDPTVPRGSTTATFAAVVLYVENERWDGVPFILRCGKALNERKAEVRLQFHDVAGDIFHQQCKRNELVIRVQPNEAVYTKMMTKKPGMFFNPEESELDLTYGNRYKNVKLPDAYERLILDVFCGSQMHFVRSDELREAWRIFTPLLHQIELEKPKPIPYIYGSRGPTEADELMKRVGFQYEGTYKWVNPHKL
structure (smiles),measurement,setting,value
Cc1ccc(N2CC(C(=O)OCC(=O)c3ccc([N+](=O)[O-])cc3)CC2=O)cc1 (centres undefined),IC50,[1],> 80 µM (inactive)
CCCCOc1ccc(Cc2nnc(S)n2N)cc1,IC50,[1],> 80 µM (inactive)
O=C(CN1C(=O)/C(=C\C=C\c2ccccc2)SC1=S)Nc1ccc(F)cc1,IC50,[2],5.21 µM (active)
same,IC50,[3],7.54 µM (active)
same,EC50,[4],> 300 µM (not active)
same,EC50,[5],> 300 µM (not active)
CC(=O)Nc1cccc(-c2cnc(N)c(C(=O)c3cccnc3)n2)c1,AC50,[6],0.193 µM (active)
same,AC50,HEK293,21.4 µM (active)
Cn1c(-c2sccc2OCc2cccc(C(F)(F)F)c2)n[nH]c1=S,EC50,[7],> 195 µM (not active)
same,IC50,[1],> 80 µM (inactive)
COc1ccc(C(=O)NNC(=S)NC(=O)/C=C/c2cccs2)cc1,EC50,Streptococcus,4.2 µM (active)
same,CC50,Vero [8],> 25 µM (active)
same,EC50,[9],0.802 µM (active)
same,IC50,Vero [10],> 25 µM (active)
